In US20230406831A1, “COMPOUNDS AND METHODS OF INHIBITING BACTERIAL CHAPERONIN SYSTEMS” (THE TRUSTEES OF INDIANA UNIVERSITY, priority 2020, published 2023):
Read-outs that look alike come from different tables or passages of the source.

Legend:
native MDH = target: T1, native MDH (Sus scrofa, UniProt P00346); assay: Native MDH enzymatic activity counter-screen; assay type: biochemical, pig; settings: compounds added after refolding and EDTA quench, read-out: Biochemical Assay IC50 Native MDH Activity
T1 construct: soluble pig heart MDH from Roche, product #10127248001; purchased Roche 10127248001; host or cells: pig heart
T1 sequence (P00346 25-338): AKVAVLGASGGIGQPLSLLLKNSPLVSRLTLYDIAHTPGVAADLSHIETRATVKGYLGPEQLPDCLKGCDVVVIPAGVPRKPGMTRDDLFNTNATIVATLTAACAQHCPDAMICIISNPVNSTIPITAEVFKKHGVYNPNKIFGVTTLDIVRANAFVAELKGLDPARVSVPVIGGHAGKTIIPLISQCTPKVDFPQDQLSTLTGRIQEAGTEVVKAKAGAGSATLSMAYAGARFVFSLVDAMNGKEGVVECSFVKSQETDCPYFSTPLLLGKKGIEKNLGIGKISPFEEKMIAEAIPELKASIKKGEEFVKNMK
Description: Counter-screening compounds for inhibition of native MDH enzymatic activity.
Reagent Preparations & Assay Protocol: This assay was performed as described above for the GroEL/ES-dMDH refolding assay; however, the assay protocol differed in the sequence of compound addition to the assay plates. The refolding reactions were allowed to proceed for 45 min at 37° C. in the absence of test compounds (complete refolding of MDH occurs), then quenched with the EDTA stock. Compounds were then pin-transferred into the plates after the EDTA quenching step; thus, compounds effects are only possible by inhibiting the fully-refolded MDH reporter substrate. Next enzymatic activity of the refolded MDH was initiated by addition of 20 μL MDH enzymatic assay stock (20 mM sodium mesoxalate and 2.4 mM NADH in reaction buffer, 50 mM Tris pH 7.4, 50 mM KCl, 1 mM DTT), and followed by measuring the NADH absorbance in each well at 340 nm using a Molecular Devices SpectraMax Plus384 microplate reader
A340 nm measurements were recorded at 0.5 minutes (start point) and at successive time points until the amount of NADH consumed reached ˜90% (end point, generally between 20-35 minutes). Compounds were tested in 8-point, 3-fold dilution series (62.5 μM to 29 nM during the reporter reaction) in clear, flat-bottom 384-well microtiter plates.
DMSO was used as a negative control, and previously discovered native MDH inhibitors were used as positive controls. IC50 values for the test compounds were obtained by plotting the % inhibition results in GraphPad Prism 6 and analyzing by non-linear regression using the log (inhibitor) vs. response (variable slope) equation. Results presented represent the averages of IC50 values obtained from at least quadriplicate (duplicate of duplicate) replicates.

HSP60/10 = target: T2, HSP60/10 (Homo sapiens, UniProt P10809); assay: HSP60/10-mediated dMDH refolding assay; assay type: biochemical; settings: 37° C., 1 mM ATP, read-out: Biochemical Assay IC50 HSP60/10-dMDH Refolding
T2 construct: octa-Histidine (His8) tag, TEV-cleavable (N, cleaved yes); made in house; host or cells: HSP60 in Rosetta 2 (DE3) E. coli; HSP10 in Rosetta 2 (DE3) pLysS
T2 sequence (P10809 27-573): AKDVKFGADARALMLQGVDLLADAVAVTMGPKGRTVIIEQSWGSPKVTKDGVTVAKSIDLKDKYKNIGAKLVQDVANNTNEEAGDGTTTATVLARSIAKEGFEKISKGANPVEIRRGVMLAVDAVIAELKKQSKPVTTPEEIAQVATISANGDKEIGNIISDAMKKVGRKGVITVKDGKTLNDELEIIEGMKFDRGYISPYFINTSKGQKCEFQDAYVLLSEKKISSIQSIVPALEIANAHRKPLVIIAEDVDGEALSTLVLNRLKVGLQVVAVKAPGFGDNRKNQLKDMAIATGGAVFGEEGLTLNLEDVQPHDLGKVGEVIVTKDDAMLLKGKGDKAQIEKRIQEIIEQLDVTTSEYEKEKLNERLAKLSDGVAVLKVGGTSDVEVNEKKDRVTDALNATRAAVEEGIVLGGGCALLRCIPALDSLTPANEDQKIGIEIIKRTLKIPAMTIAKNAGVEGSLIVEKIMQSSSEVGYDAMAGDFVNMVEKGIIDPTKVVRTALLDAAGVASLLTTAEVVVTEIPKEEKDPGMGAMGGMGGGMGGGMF
Description: Evaluation of compounds ability to inhibit GroEL/ES and HSP60/10-mediated dMDH refolding assays.
Reagent preparation: For these assays, four primary reagent stocks were prepared: 1) GroEL/ES-dMDH or HSP60/10-dMDH binary complex stock; 2) ATP initiation stock; 3) EDTA quench stock; 4) MDH enzymatic assay stock. Denatured MDH (dMDH) was prepared by 2-fold dilution of MDH (5 mg/ml, soluble pig heart MDH from Roche, product #10127248001) with denaturant buffer (7 M guanidine-HCl, 200 mM Tris, pH 7.4, and 50 mM DTT). MDH was completely denatured by incubating at room temperature for 45 min. The binary complex solutions were prepared by slowly adding the dMDH stock to a stirring stock with GroEL (or HSP60) in folding buffer (50 mM Tris-HCl, pH 7.4, 50 mM KCl, 10 mM MglC2, and 1 mM DTT), followed by addition of GroES (or HSP10). The binary complex stocks were prepared immediately prior to dispensing into the assay plates and had final protein concentrations of 83.3 nM GroEL (Mr 800 kDa) or HSP60 (Mr 400 kDa), 100 nM GroES or HSP10 (Mr 70 kDa), and 20 nM dMDH in folding buffer. For the ATP initiation stock, ATP solid was diluted into folding buffer to a final concentration of 2.5 mM. Quench solution contained 600 mM EDTA (pH 8.0). The MDH enzymatic assay stock consisted of 20 mM sodium mesoxalate and 2.4 mM NADH in reaction buffer (50 mM Tris-HCl, pH 7.4, 50 mM KC1, and 1 mM DTT).
Assay Protocol: First, 30 μL aliquots of the GroEL/ES-dMDH or HSP60/10-dMDH binary complex stocks were dispensed into clear, 384-well polystyrene plates. Next, 0.5 μL of the compound stocks (10 mM to 4.6 μM, 3-fold dilutions series in DMSO) were added by pin-transfer (V&P Scientific). The chaperonin-mediated refolding cycles were initiated by addition of 20 IA of ATP stock (reagent concentrations during refolding cycle: 50 nM GroEL or HSP60, 60 nM GroES or HSP10, 12 nM dMDH, 1 mM ATP, and compounds of 100 μM to 46 nM, 3-fold dilution series). The refolding reactions were incubated at 37° C. The incubation time was determined from refolding time-course control experiments until they reached ˜90% completion of refolding cycle — generally ˜20-40 min for GroEL/ES, and ˜40-60 min for HSP60/10). Next, the assay was quenched by addition of 10 μL of the EDTA to final concentration of 100 mM. […] A340 nm measurements were recorded at 0.5 minutes (start point) and at successive time points until the amount of NADH consumed reached ˜90% (end point, generally between 20-35 minutes). The differences between the start and end point A340 values were used to calculate the % inhibition of the GroEL/ES or HSP60/10 machinery by the compounds. IC50 values for the test compounds were obtained by plotting the % inhibition results in GraphPad Prism 6 and analyzing by non-linear regression using the log (inhibitor) vs. response (variable slope) equation. Results presented represent the averages of IC50 values obtained from at least quadriplicate (duplicate of duplicate) replicates. For results, see Tables 1, 2, and 3.

O=C(Nc1ccc([N+](=O)[O-])cc1Cl)c1cc(Cl)ccc1O [Niclosamide, reference compound]
IC50 (native MDH; Table 1): > 63 µM
IC50 (native MDH; Table 3): > 63 µM
IC50 (HSP60/10; Table 1): > 100 µM
IC50 (HSP60/10; Table 3): > 100 µM

Cc1cc(C(C#N)c2ccc(Cl)cc2)c(Cl)cc1NC(=O)c1cccc(N)c1 (stereo not drawn) [Compound 71, 3-amino-N-(5-chloro-4-((4-chlorophenyl)(cyano)methyl)-2-methylphenyl)benzamide]
IC50 (native MDH; Table 2): > 63 µM
IC50 (HSP60/10; Table 2): > 100 µM

COc1c(Br)cccc1C(=O)Nc1cc(Cl)c(C(C#N)c2ccc(Cl)cc2)cc1C (stereo not drawn) [Compound 47, 3-bromo-N-(5-chloro-4-((4-chlorophenyl)(cyano)methyl)-2-methylphenyl)-2-methoxybenzamide]
IC50 (native MDH; Table 2): > 63 µM
IC50 (HSP60/10; Table 2): > 100 µM

O=C(Nc1ccc(Sc2nc3ccccc3s2)c(Cl)c1)c1cc(Br)cc(Br)c1O [Compound 1, reference compound]
IC50 (native MDH; Table 1): 6.3 µM
IC50 (HSP60/10; Table 1): 3.7 µM

COc1ccc(Cl)cc1C(=O)Nc1ccc(Oc2ccc(Cl)cc2)c(Cl)c1 [Compound 86, 5-chloro-N-(3-chloro-4-(4-chlorophenoxy)phenyl)-2-methoxybenzamide]
IC50 (native MDH; Table 3): > 63 µM
IC50 (HSP60/10; Table 3): > 100 µM

O=C(Nc1cc(Cl)cc(Cl)c1O)c1c(O)c(Cl)cc(Cl)c1Cl [Oxyclosanide, reference compound]
IC50 (native MDH; Table 1): 54 µM
IC50 (HSP60/10; Table 1): 28 µM

Cc1cc(C(C#N)c2ccc(Cl)cc2)c(Cl)cc1NC(=O)c1ccccc1O (stereo not drawn) [Compound 64, N-(5-chloro-4-((4-chlorophenyl)(cyano)methyl)-2-methylphenyl)-2-hydroxybenzamide]
IC50 (native MDH; Table 2): > 63 µM
IC50 (HSP60/10; Table 2): 50 µM

COc1ccc(Br)cc1C(=O)Nc1cc(Cl)c(C(C#N)c2ccc(Cl)cc2)cc1C (stereo not drawn) [Compound 49, 5-bromo-N-(5-chloro-4-((4-chlorophenyl)(cyano)methyl)-2-methylphenyl)-2-methoxybenzamide]
IC50 (native MDH; Table 2): > 63 µM
IC50 (HSP60/10; Table 2): > 100 µM

COc1ccc(C)cc1C(=O)Nc1cc(Cl)c(C(C#N)c2ccc(Cl)cc2)cc1C (stereo not drawn) [Compound 59, N-(5-chloro-4-((4-chlorophenyl)(cyano)methyl)-2-methylphenyl)-2-methoxy-5-methylbenzamide]
IC50 (native MDH; Table 2): > 63 µM
IC50 (HSP60/10; Table 2): > 100 µM

N#CC(c1ccccc1)c1ccc(NC(=O)c2cc(Cl)ccc2O)cc1 (stereo not drawn) [Compound 85, 5-chloro-N-(4-(cyano(phenyl)methyl)phenyl)-2-hydroxybenzamide]
IC50 (native MDH; Table 3): > 63 µM
IC50 (HSP60/10; Table 3): 75 µM

O=C(Nc1ccc(O)cc1)c1cc(Cl)ccc1O [Compound 115, 5-chloro-2-hydroxy-N-(4-hydroxyphenyl)benzamide]
IC50 (native MDH; Table 3): > 63 µM
IC50 (HSP60/10; Table 3): > 100 µM

Cc1cc(C(C#N)c2ccc(Cl)cc2)c(Cl)cc1NC(=O)c1cccc(Br)c1 (stereo not drawn) [Compound 74, 3-bromo-N-(5-chloro-4-((4-chlorophenyl)(cyano)methyl)-2-methylphenyl)benzamide]
IC50 (native MDH; Table 2): > 63 µM
IC50 (HSP60/10; Table 2): > 100 µM

O=C(Nc1ccc(Oc2ccc(Cl)cc2)c(Cl)c1)c1cc(Cl)ccc1O [Compound 87, 5-chloro-N-(3-chloro-4-(4-chlorophenoxy)phenyl)-2-hydroxybenzamide]
IC50 (native MDH; Table 3): > 63 µM
IC50 (HSP60/10; Table 3): 9.5 µM

Cc1cc(C(C#N)c2ccc(Cl)cc2)c(Cl)cc1NC(=O)c1ccccc1N (stereo not drawn) [Compound 70, 2-amino-N-(5-chloro-4-((4-chlorophenyl)(cyano)methyl)-2-methylphenyl)benzamide]
IC50 (native MDH; Table 2): > 63 µM
IC50 (HSP60/10; Table 2): > 100 µM

N#CCc1ccc(NC(=O)c2cc(Cl)ccc2O)cc1 [Compound 111, 5-chloro-N-(4-(cyanomethyl)phenyl)-2-hydroxybenzamide]
IC50 (native MDH; Table 3): > 63 µM
IC50 (HSP60/10; Table 3): > 100 µM

COc1ccc(Cl)cc1C(=O)Nc1ccccc1 [Compound 116, 5-chloro-2-methoxy-N-phenylbenzamide]
IC50 (native MDH; Table 3): > 63 µM
IC50 (HSP60/10; Table 3): > 100 µM

Cc1cc(C(C#N)c2ccc(Cl)cc2)c(Cl)cc1NC(=O)c1cccc(F)c1 (stereo not drawn) [Compound 80, N-(5-chloro-4-((4-chlorophenyl)(cyano)methyl)-2-methylphenyl)-3-fluorobenzamide]
IC50 (native MDH; Table 2): > 63 µM
IC50 (HSP60/10; Table 2): > 100 µM

COc1c(Br)cc(Br)cc1C(=O)Nc1cc(Cl)c(C(C#N)c2ccc(Cl)cc2)cc1C (stereo not drawn) [Compound 45, 3,5-dibromo-N-(5-chloro-4-((4-chlorophenyl)(cyano)methyl)-2-methylphenyl)-2-methoxybenzamide]
IC50 (native MDH; Table 2): > 63 µM
IC50 (HSP60/10; Table 2): > 100 µM

COc1ccc(Cl)cc1C(=O)Nc1ccc(OCc2ccccc2)cc1 [Compound 102, N-(4-(benzyloxy)phenyl)-5-chloro-2-methoxybenzamide]
IC50 (native MDH; Table 3): > 63 µM
IC50 (HSP60/10; Table 3): > 100 µM

Cc1cc(C(C#N)c2ccc(Cl)cc2)c(Cl)cc1NC(=O)c1ccc(F)cc1 (stereo not drawn) [Compound 81, N-(5-chloro-4-((4-chlorophenyl)(cyano)methyl)-2-methylphenyl)-4-fluorobenzamide]
IC50 (native MDH; Table 2): > 63 µM
IC50 (HSP60/10; Table 2): > 100 µM

O=C(Nc1ncc([N+](=O)[O-])s1)c1ccccc1O [Tizoxanide, reference compound]
IC50 (native MDH; Table 1): > 63 µM
IC50 (HSP60/10; Table 1): > 100 µM

Cc1cc(C(C#N)c2ccc(Cl)cc2)c(Cl)cc1NC(=O)c1ccc(O)cc1 (stereo not drawn) [Compound 66, N-(5-chloro-4-((4-chlorophenyl)(cyano)methyl)-2-methylphenyl)-4-hydroxybenzamide]
IC50 (native MDH; Table 2): > 63 µM
IC50 (HSP60/10; Table 2): 35 µM

Cc1cc(C(C#N)c2ccc(Cl)cc2)c(Cl)cc1NC(=O)c1ccc(Br)cc1 (stereo not drawn) [Compound 75, 4-bromo-N-(5-chloro-4-((4-chlorophenyl)(cyano)methyl)-2-methylphenyl)benzamide]
IC50 (native MDH; Table 2): > 63 µM
IC50 (HSP60/10; Table 2): > 100 µM
